From US9827235B2, “Pharmaceutical compositions comprising antibacterial agents” (WOCKHARDT LIMITED, priority 2013, dated 2017)
Where two headings read alike, the source gives them in different places.

Legend:
Type in all cases: cell-based
[1] = test system: K. pneumoniae B 77; assay: MIC on Muller Hinton Agar (CLSI); details: for MIC: enzymes SHV, TEM
Protocol: (§1) The antibacterial activity of combinations according to the invention was investigated against various bacterial strains. In a typical study, minimum inhibitory concentrations (MIC) were determined using Muller Hinton Agar (MHA) (BD, USA) according to Clinical and Laboratory Standards Institute (CLSI) recommendations, (Clinical and Laboratory Standards Institute (CLSI), Performance Standards for Antimicrobial Susceptibility Testing, 20th Informational Supplement, M 100-S20, Volume 30, No. 1, 2010). In short, the inocula were adjusted to deliver about 10^4 colony forming units (CFU) per spot with a multipoint inoculator (Applied Quality Services, UK). The plates were pored with doubling concentration range of the test combinations according to invention containing MHA. The plates were inoculated and were incubated at 35° C. for 18 hours.

[2] = test system: K. pneumoniae M 3; assay: MIC on Muller Hinton Agar (CLSI); details: for MIC: enzymes SHV, CTXM, TEM
Protocol: as §1

[3] = test system: P. aeruginosa Q-111; assay: MIC on Muller Hinton Agar (CLSI)
Protocol: as §1

[4] = test system: K. pneumoniae S 50; assay: MIC on Muller Hinton Agar (CLSI); details: for MIC: enzymes SHV, TEM
Protocol: as §1

[5] = test system: P. aeruginosa H 113720186; assay: MIC on Muller Hinton Agar (CLSI); details: for MIC: enzymes IMP
Protocol: as §1

[6] = test system: E. coli S 33; assay: MIC on Muller Hinton Agar (CLSI); details: for MIC: enzymes TEM
Protocol: as §1

[7] = test system: P. aeruginosa S 504; assay: MIC on Muller Hinton Agar (CLSI)
Protocol: as §1

[8] = test system: E. coli S 330; assay: MIC on Muller Hinton Agar (CLSI); details: for MIC: Escherichia coli, S330, agent alone, enzymes NDM, read-out: MIC
Protocol: as §1

[9] = test system: K. pneumoniae NCTC 13439; assay: MIC on Muller Hinton Agar (CLSI); details: for MIC: Klebsiella pneumoniae, NCTC13439, agent alone, enzymes VIM-1, read-out: MIC
Protocol: as §1

[10] = test system: K. pneumoniae S 48; assay: MIC on Muller Hinton Agar (CLSI); details: for MIC: enzymes SHV, TEM
Protocol: as §1

[11] = test system: K. pneumoniae B 88; assay: MIC on Muller Hinton Agar (CLSI); details: for MIC: enzymes SHV, TEM
Protocol: as §1

[12] = test system: E. coli S 35; assay: MIC on Muller Hinton Agar (CLSI); details: for MIC: enzymes TEM
Protocol: as §1

[13] = test system: E. coli M 44; assay: MIC on Muller Hinton Agar (CLSI); details: for MIC: enzymes TEM
Protocol: as §1

[14] = test system: P. aeruginosa S 508; assay: MIC on Muller Hinton Agar (CLSI)
Protocol: as §1

[15] = test system: E. coli S 16; assay: MIC on Muller Hinton Agar (CLSI); details: for MIC: enzymes CMY type, TEM, DHA
Protocol: as §1

[16] = test system: P. aeruginosa S 513; assay: MIC on Muller Hinton Agar (CLSI)
Protocol: as §1

[17] = test system: E. coli S 30; assay: MIC on Muller Hinton Agar (CLSI); details: for MIC: enzymes CMY type, TEM
Protocol: as §1

[18] = test system: clinical isolate of K. pneumoniae S 48 producing metallo beta-lactamases [SHV, TEM, NDM-1]; assay: Time kill study; details: for Bacterial count: each agent at 8 mcg/ml, initial count 6.84 log CFU/ml
Protocol: (§2) Typically, freshly grown cultures were diluted to the required cell density (initial starting inoculum) in Cation adjusted Muller Hinton broth medium BD, USA). The antibacterial agents at the required concentrations were added into the culture-containing medium either alone or in combination. The samples were incubated under shaking condition (120 rpm) at 37° C. Enumeration of viable bacterial count was undertaken, every 2 hour, by diluting in normal saline and plating on to the Tryptic Soya Agar plates (BD, USA). The plates were incubated for 24 hours to arrive at the viable bacterial count. […] The decrease of 1 Log CFU/ml, after administration of combination of present invention, in comparison to initial bacterial count corresponds to 90% killing of bacteria. Similarly, 2 Log CFU/ml reductions corresponds to 99% killing of bacteria and 3 Log CFU/ml reductions is equal to 99.9% killing of bacteria.

[19] = test system: clinical isolate of K. pneumoniae B 88 producing metallo beta-lactamases [SHV, TEM, NDM-1]; assay: Time kill study; details: for Bacterial count: each agent at 8 mcg/ml, initial count 6.18 log CFU/ml; for Change in bacterial count (in words): used alone at 8 mcg/ml, at the end of 6 hours
Protocol: as §2

[20] = test system: highly resistant strains of E. coli, K. pneumonia and P. aeruginosa; assay: MIC, summary over the strain panel; details: for MICs (range over the strains): agent alone
Protocol: as §1

[21] = Klebsiella pneumoniae, B77, agent alone, NDM-1, read-out: MIC
[22] = Klebsiella pneumoniae, M3, agent alone, NDM-1, read-out: MIC
[23] = Pseudomonas aeruginosa, Q111, agent alone, enzymes OXA-4, OXA-11, read-out: MIC
[24] = Klebsiella pneumoniae, S50, agent alone, NDM-1, read-out: MIC
[25] = Pseudomonas aeruginosa, H113720186, agent alone, read-out: MIC
[26] = Escherichia coli, S33, agent alone, NDM-1, read-out: MIC
[27] = Pseudomonas aeruginosa, S504, agent alone, enzymes VIM-6, read-out: MIC
[28] = Klebsiella pneumoniae, S48, agent alone, NDM-1, read-out: MIC
[29] = Klebsiella pneumoniae, B88, agent alone, NDM-1, read-out: MIC
[30] = Escherichia coli, S35, agent alone, NDM-1, read-out: MIC
[31] = Escherichia coli, M44, agent alone, NDM-1, read-out: MIC
[32] = Pseudomonas aeruginosa, S508, agent alone, enzymes VIM-11, read-out: MIC
[33] = Escherichia coli, S16, agent alone, read-out: MIC
[34] = Pseudomonas aeruginosa, S513, agent alone, enzymes VIM-6, read-out: MIC
[35] = Escherichia coli, S30, agent alone, NDM-1, read-out: MIC

Row | Compound | MIC [1, 21] [µg/mL] | MIC [2, 22] [µg/mL] | MIC [3, 23] [µg/mL] | MIC [4, 24] [µg/mL] | MIC [5, 25] [µg/mL] | MIC [6, 26] [µg/mL] | MIC [7, 27] [µg/mL] | MIC [8] [µg/mL] | MIC [9] [µg/mL] | MIC [10, 28] [µg/mL] | MIC [11, 29] [µg/mL] | MIC [12, 30] [µg/mL] | MIC [13, 31] [µg/mL] | MIC [14, 32] [µg/mL] | MIC [15, 33] [µg/mL] | MIC [16, 34] [µg/mL] | MIC [17, 35] [µg/mL] | Bacterial count ([18]; 2 hours) [Log CFU/ml] | Bacterial count ([18]; 4 hours) [Log CFU/ml] | Bacterial count ([18]; 6 hours) [Log CFU/ml] | also measured
1 | O=C(NNC(=O)[C@@H]1CC[C@@H]2CN1C(=O)N2OS(=O)(=O)O)[C@@H]1CCCNC1 [Compound of Formula (I), (2S,5R)-sulphuric acid mono-[2-(N′—[(R)-piperidin-3-carbonyl]-hydrazinocarbonyl)-7-oxo-1,6-diaza-bicyclo[3.2.1]oct-6-yl] ester] | > 32 | 0.5 | 4 | 0.5 | 8 | 0.25 | 8 | 0.12 | > 32 | 0.5 | > 32 | 0.25 | 0.12 | 8 | 0.25 | 8 | 0.25 | 7.27 | 7.04 | 7.45 | Change in bacterial count (in words) ([18]; used alone at 8 mcg/ml, at the end of 6 hours): no decrease in bacterial count was observed; Bacterial count ([19]; 2 hours): 6.4 Log CFU/ml; Bacterial count ([19]; 4 hours): 6.08 Log CFU/ml; Bacterial count ([19]; 6 hours): 6.28 Log CFU/ml; Change in bacterial count (in words) [19]: no decrease in bacterial count was observed; MICs (range over the strains) ([20]; most strains of E. coli and K. pneumoniae): 0.1 to 0.5 µg/mL
2 | colistin |  |  |  |  |  |  |  |  |  |  |  |  |  |  |  |  |  |  |  |  | MIC ([1]; agent alone, NDM-1): 1 µg/mL; MIC ([2]; agent alone, NDM-1): 1 µg/mL; MIC ([3]; agent alone, enzymes OXA-4, OXA-11): 2 µg/mL; MIC ([4]; agent alone, NDM-1): 1 µg/mL; MIC ([5]; agent alone): 2 µg/mL; MIC ([6]; agent alone, NDM-1): 1 µg/mL; MIC ([7]; agent alone, enzymes VIM-6): 2 µg/mL; MIC ([10]; agent alone, NDM-1): 1 µg/mL; MIC ([11]; agent alone, NDM-1): 1 µg/mL; MIC ([12]; agent alone, NDM-1): 1 µg/mL; MIC ([13]; agent alone, NDM-1): 1 µg/mL; MIC ([14]; agent alone, enzymes VIM-11): 2 µg/mL; MIC ([15]; agent alone): 1 µg/mL; MIC ([16]; agent alone, enzymes VIM-6): 2 µg/mL; MIC ([17]; agent alone, NDM-1): 0.5 µg/mL; MICs (range over the strains) ([20]; resistant strains of E. coli, K. pneumonia and P. aeruginosa): 0.5 to 2 µg/mL
3 | CC(C)(O/N=C(\C(=O)N[C@@H]1C(=O)N2C(C(=O)[O-])=C(C[n+]3ccccc3)CS[C@H]12)c1csc(N)n1)C(=O)O [ceftazidine, ceftazidime] |  |  |  |  |  |  |  |  |  |  |  |  |  |  |  |  |  |  |  |  | MIC (mcg/ml) of ceftazidine in presence of avibactam (4 mcg/ml) ([1]; with avibactam at 4 mcg/ml): >16 µg/mL; MIC (mcg/ml) of ceftazidine in presence of avibactam (4 mcg/ml) ([2]; with avibactam at 4 mcg/ml): >16 µg/mL; MIC (mcg/ml) of ceftazidine in presence of avibactam (4 mcg/ml) ([3]; with avibactam at 4 mcg/ml): 32 µg/mL; MIC (mcg/ml) of ceftazidine in presence of avibactam (4 mcg/ml) ([4]; with avibactam at 4 mcg/ml): >16 µg/mL; MIC (mcg/ml) of ceftazidine in presence of avibactam (4 mcg/ml) ([5]; with avibactam at 4 mcg/ml): >32 µg/mL; MIC (mcg/ml) of ceftazidine in presence of avibactam (4 mcg/ml) ([6]; with avibactam at 4 mcg/ml): >16 µg/mL; MIC (mcg/ml) of ceftazidine in presence of avibactam (4 mcg/ml) ([7]; with avibactam at 4 mcg/ml): >16 µg/mL; MIC (mcg/ml) of ceftazidine in presence of avibactam (4 mcg/ml) ([8]; with avibactam at 4 mcg/ml): >16 µg/mL; MIC (mcg/ml) of ceftazidine in presence of avibactam (4 mcg/ml) ([9]; with avibactam at 4 mcg/ml): >16 µg/mL; MIC (mcg/ml) of ceftazidine in presence of avibactam (4 mcg/ml) ([10]; with avibactam at 4 mcg/ml): >16 µg/mL; MIC (mcg/ml) of ceftazidine in presence of avibactam (4 mcg/ml) ([11]; with avibactam at 4 mcg/ml): >16 µg/mL; MIC (mcg/ml) of ceftazidine in presence of avibactam (4 mcg/ml) ([12]; with avibactam at 4 mcg/ml): >16 µg/mL; MIC (mcg/ml) of ceftazidine in presence of avibactam (4 mcg/ml) ([13]; with avibactam at 4 mcg/ml): >16 µg/mL; MIC (mcg/ml) of ceftazidine in presence of avibactam (4 mcg/ml) ([14]; with avibactam at 4 mcg/ml): >16 µg/mL; MIC (mcg/ml) of ceftazidine in presence of avibactam (4 mcg/ml) ([15]; with avibactam at 4 mcg/ml): >16 µg/mL; MIC (mcg/ml) of ceftazidine in presence of avibactam (4 mcg/ml) ([16]; with avibactam at 4 mcg/ml): >16 µg/mL; MIC (mcg/ml) of ceftazidine in presence of avibactam (4 mcg/ml) ([17]; with avibactam at 4 mcg/ml): >16 µg/mL; MIC values of ceftazidime in presence of avibactam ([20]; with avibactam at 4 mcg/ml, in most of the cases): more than 16 mcg/ml
4 | NCC[C@H](O)C(=O)N[C@@H]1C[C@H](N)[C@@H](O[C@H]2O[C@H](CN)[C@@H](O)[C@H](O)[C@H]2O)[C@H](O)[C@H]1O[C@H]1O[C@H](CO)[C@@H](O)[C@H](N)[C@H]1O [Amikacin, amikacin] | > 64 | 4 | 16 | > 64 | > 32 | > 64 | > 32 | > 64 | > 64 | > 64 | > 64 | > 64 | > 64 | > 32 | > 64 | > 32 | > 64 |  |  |  | 
5 | C[C@@H](O)[C@H]1C(=O)N2C(C(=O)O)=C(S[C@@H]3CN[C@H](C(=O)N(C)C)C3)[C@H](C)[C@H]12 [Meropenem, meropenem] | > 32 | 16 | 4 | > 32 | > 64 | > 32 | > 32 | > 32 | > 32 | 32 | > 32 | > 32 | 32 | > 32 | > 32 | > 32 | > 32 |  |  |  | Bacterial count ([19]; 2 hours): 6.02 Log CFU/ml; Bacterial count ([19]; 4 hours): 6.3 Log CFU/ml; Bacterial count ([19]; 6 hours): 7.6 Log CFU/ml; Change in bacterial count (in words) [19]: no decrease in bacterial count was observed
6 | C[C@@H](O)[C@H]1C(=O)N2C(C(=O)O)=C(SCCN=CN)C[C@H]12 [Imipenem, imipenem] |  |  |  |  |  |  |  |  |  |  |  |  |  |  |  |  |  | 7.38 | 8.32 | 8.81 | 
